The source of these data is PubChem BioAssay (NCI).

Test systems include NCI-H522 lung; NCI-H460 lung; HOP-62 NSCLC; UO-31 renal; 786-0 renal; COLO 205 colon; OVCAR-8 ovarian; ACHN renal; MDA-MB-435; OVCAR-3 ovarian; KM12 colon; PC-3 prostate.
Holding throughout (assay): inhibition of tumour cell growth, NCI panel, 48 h

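Step 1: Grow cells in 96-well plates. Step 2: Expose to compound for 48 hours at 5 concentrations. Step 3: Interpolate endpoints linearly; if unreached, use highest concentration. TGI is the concentration that stops growth completely.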 Where only a bound is given, the exact number is not on record here.

As to `COc1cc(N=C(N)N=C(N)N)c2ncccc2c1`, the TGI in the assay with NCI-H522 lung, with NCI-H460 lung, in the assay on HOP-62 NSCLC, with UO-31 renal, in the assay on 786-0 renal and in the assay with COLO 205 colon was > 100 µM each time. The TGI with OVCAR-8 ovarian, with ACHN renal, with MDA-MB-435, in the assay on OVCAR-3 ovarian, with KM12 colon and in the assay with PC-3 prostate was > 100 µM each time.

Consider `O=C(Nc1ccc(Cl)cc1)c1cc(S(=O)(=O)Nc2n[nH]c(=O)[nH]2)c(SSc2cc(Cl)c(C(=O)Nc3ccc(Cl)cc3)cc2S(=O)(=O)Nc2n[nH]c(=O)[nH]2)cc1Cl`, for which the TGI in the assay on NCI-H522 lung, in the assay with NCI-H460 lung, in the assay with HOP-62 NSCLC, with UO-31 renal, with 786-0 renal and in the assay on COLO 205 colon was > 100 µM throughout. Further, the TGI in the assay on OVCAR-8 ovarian, with ACHN renal, with MDA-MB-435, with OVCAR-3 ovarian, in the assay on KM12 colon and in the assay with PC-3 prostate was > 100 µM in each case.

For `C/C(Cl)=N\OC(=O)Nc1ccc([N+](=O)[O-])cc1`, the TGI in the assay with NCI-H522 lung is 3.75 µM; in the assay on NCI-H460 lung, 38.8 µM; in the assay on HOP-62 NSCLC, > 100 µM; with UO-31 renal it was 11.4 µM; in the assay on 786-0 renal, 18.4 µM; with COLO 205 colon it was 5.85 µM. For the same molecule, the TGI with OVCAR-8 ovarian came to 32.2 µM; in the assay on ACHN renal, 9.2 µM; in the assay on MDA-MB-435, 32.9 µM; with OVCAR-3 ovarian, 6.1 µM; in the assay with KM12 colon, 36.2 µM; with PC-3 prostate it was 29.9 µM.

Take `O=c1oc2ncccc2n1Cc1ccc([N+](=O)[O-])cc1`: the TGI with NCI-H522 lung, with NCI-H460 lung, in the assay on HOP-62 NSCLC, in the assay with UO-31 renal, in the assay with 786-0 renal and in the assay with COLO 205 colon was > 100 µM throughout. Besides, the TGI with OVCAR-8 ovarian, with ACHN renal, in the assay on MDA-MB-435, in the assay with OVCAR-3 ovarian, in the assay with KM12 colon and with PC-3 prostate was > 100 µM in each case.

For the molecule `CCOC(=O)C(SCCO)C(C(=O)OCC)n1ccc(N)nc1=O` (centres undefined), the TGI in the assay on NCI-H522 lung, in the assay with NCI-H460 lung, in the assay with HOP-62 NSCLC, in the assay with UO-31 renal, in the assay on 786-0 renal and in the assay with COLO 205 colon was > 100 µM throughout. Also, the TGI in the assay on OVCAR-8 ovarian, in the assay with ACHN renal, with MDA-MB-435, with OVCAR-3 ovarian, in the assay with KM12 colon and in the assay on PC-3 prostate was > 100 µM each time.

On to `CCOC(=O)/C(C(=S)NC)=C(/N)N1CCCC1`, for which the TGI in the assay with NCI-H522 lung, in the assay with NCI-H460 lung, in the assay with HOP-62 NSCLC, in the assay with UO-31 renal, in the assay on 786-0 renal and in the assay on COLO 205 colon was > 100 µM throughout. Besides, the TGI in the assay with OVCAR-8 ovarian, with ACHN renal, with MDA-MB-435, in the assay on OVCAR-3 ovarian, in the assay on KM12 colon and with PC-3 prostate was > 100 µM in each case.

In the case of `C=CCCCCOC1C=CC(OC(C)=O)C(COC(C)=O)O1` (centres undefined), the TGI with NCI-H522 lung, in the assay with NCI-H460 lung, in the assay with HOP-62 NSCLC, in the assay with UO-31 renal, with 786-0 renal and in the assay with COLO 205 colon was > 100 µM in each case. Besides, the TGI in the assay on OVCAR-8 ovarian, in the assay on ACHN renal, in the assay with MDA-MB-435, in the assay with OVCAR-3 ovarian, in the assay with KM12 colon and in the assay on PC-3 prostate was > 100 µM each time.

Take `C=C1C(=O)OC2/C=C(\C)CC/C=C(/C)CC(OC(=O)/C(=C/CO)CO)C12` (centres undefined): the TGI with NCI-H522 lung is 39.9 µM; in the assay on NCI-H460 lung it was > 100 µM; with HOP-62 NSCLC, > 100 µM; in the assay with UO-31 renal it was 33.8 µM; with 786-0 renal it was 88.8 µM; with COLO 205 colon, 33 µM. The TGI was > 100 µM with OVCAR-8 ovarian; 33.5 µM with ACHN renal; 82.5 µM with MDA-MB-435; > 100 µM in the assay on OVCAR-3 ovarian; > 100 µM with KM12 colon; > 100 µM in the assay with PC-3 prostate.

On to `O=C(CC(=O)c1ccncc1)c1ccccc1`, for which the TGI in the assay with NCI-H522 lung, in the assay with NCI-H460 lung, in the assay with HOP-62 NSCLC, in the assay with UO-31 renal, in the assay on 786-0 renal and in the assay on COLO 205 colon was > 100 µM in each case. The TGI with OVCAR-8 ovarian, in the assay on ACHN renal, in the assay with MDA-MB-435, in the assay with OVCAR-3 ovarian, in the assay with KM12 colon and in the assay on PC-3 prostate was > 100 µM each time.

Take `O=C1CCc2c3c(c4c([nH]c5ccccc54)c2CC1)C(=O)NC3=O`: the TGI with NCI-H522 lung is 9.3 µM; with NCI-H460 lung, 44.9 µM; in the assay with HOP-62 NSCLC, > 100 µM; in the assay on UO-31 renal, 14.7 µM; with 786-0 renal, > 100 µM; in the assay with COLO 205 colon, > 100 µM. Further, the TGI is 38.2 µM in the assay with OVCAR-8 ovarian; 24.7 µM with ACHN renal; 12.3 µM in the assay with MDA-MB-435; > 100 µM with OVCAR-3 ovarian; 18.4 µM in the assay with KM12 colon; 70.6 µM with PC-3 prostate.

Regarding `CCN(CC)CCN1c2ccccc2Sc2ccc3ccccc3c21`, the TGI worked out at 27.9 µM with NCI-H522 lung; 6.42 µM in the assay with NCI-H460 lung; 29 µM in the assay on HOP-62 NSCLC; 19.1 µM with UO-31 renal; 23.9 µM in the assay with 786-0 renal; 15.9 µM in the assay with COLO 205 colon. Besides, the TGI with OVCAR-8 ovarian amounted to 26.8 µM; in the assay with ACHN renal, 29.2 µM; with MDA-MB-435, 21.2 µM; in the assay with OVCAR-3 ovarian it was 24.6 µM; in the assay on KM12 colon, 19.7 µM; in the assay on PC-3 prostate it was 19.5 µM.

Consider `CCOC(=O)c1ccc(N=C2SC(=S)N(c3ccc(F)cc3)C2=Nc2ccc(C(=O)OCC)cc2)cc1`, for which the TGI was 19.1 µM in the assay on NCI-H522 lung; > 100 µM in the assay with NCI-H460 lung; > 89 µM in the assay on HOP-62 NSCLC; 28 µM in the assay on UO-31 renal; 31.6 µM in the assay with 786-0 renal; 40.3 µM in the assay with COLO 205 colon. For the same molecule, the TGI with OVCAR-8 ovarian was 22.3 µM; in the assay with ACHN renal it was 29.4 µM; with MDA-MB-435 it was 40.7 µM; with OVCAR-3 ovarian it was > 53.7 µM; with KM12 colon, > 71.7 µM; in the assay with PC-3 prostate, 40.6 µM.

Consider `Cc1c2c(c(C)c3c[n+](C)ccc13)Oc1ccccc1O2`, for which the TGI with NCI-H522 lung was 17.1 µM; in the assay with NCI-H460 lung, 16.4 µM; with HOP-62 NSCLC, 33.4 µM; with UO-31 renal, > 100 µM; in the assay on 786-0 renal it was > 100 µM; in the assay on COLO 205 colon, > 52.9 µM. The TGI in the assay on OVCAR-8 ovarian is > 54 µM; in the assay on ACHN renal, > 100 µM; in the assay on MDA-MB-435 it was 34.1 µM; in the assay on OVCAR-3 ovarian, 17.5 µM; in the assay on KM12 colon, 6.42 µM; with PC-3 prostate, > 76.7 µM.

Take `CC1=C(C)C(=O)OC(C(C)(O)C2(O)CCC3(O)C4CC(Cl)C5(O)C(O)C=CC(=O)C5(C)C4CCC32C)C1` (centres undefined): the TGI is > 100 µM in the assay on NCI-H522 lung; > 100 µM with NCI-H460 lung; > 100 µM with HOP-62 NSCLC; > 100 µM in the assay with UO-31 renal; > 100 µM with 786-0 renal; 42.8 µM in the assay on COLO 205 colon. Also, the TGI in the assay with OVCAR-8 ovarian, with ACHN renal, with MDA-MB-435, in the assay on OVCAR-3 ovarian, in the assay on KM12 colon and in the assay on PC-3 prostate was > 100 µM each time.

With `Cc1csc2c(P(=O)(OC(C)C)OC(C)C)c(-c3ccccc3)cn12`, the TGI worked out at 30.7 µM with NCI-H522 lung; 30.1 µM with NCI-H460 lung; 33.1 µM in the assay on HOP-62 NSCLC; 31.8 µM with UO-31 renal; 30.7 µM in the assay with 786-0 renal; 37.8 µM in the assay with COLO 205 colon. Besides, the TGI in the assay on OVCAR-8 ovarian is 33 µM; in the assay with ACHN renal, 28.3 µM; in the assay with MDA-MB-435, 37.7 µM; in the assay with OVCAR-3 ovarian, 28.2 µM; in the assay on KM12 colon, 30.6 µM; with PC-3 prostate, 28.7 µM.

For the molecule `C1CNCCN2CCCNCCN(C1)CC2`, the TGI with NCI-H522 lung, with NCI-H460 lung, in the assay with HOP-62 NSCLC, with UO-31 renal, with 786-0 renal and with COLO 205 colon was > 100 µM in each case. Besides, the TGI in the assay on OVCAR-8 ovarian, in the assay with ACHN renal, in the assay with MDA-MB-435, with OVCAR-3 ovarian, in the assay on KM12 colon and with PC-3 prostate was > 100 µM in each case.

For the molecule `COc1ccc(/C=C2/C(=O)N(C(=O)c3ccccc3O)N=C2C)cc1OC`, the TGI with NCI-H522 lung is > 100 µM; in the assay on NCI-H460 lung, > 100 µM; in the assay on HOP-62 NSCLC, > 20.8 µM; in the assay on UO-31 renal it was > 100 µM; in the assay on 786-0 renal, > 100 µM; in the assay with COLO 205 colon, > 95.1 µM. Moreover, the TGI is > 100 µM with OVCAR-8 ovarian; > 100 µM in the assay on ACHN renal; > 100 µM with MDA-MB-435; 10.5 µM in the assay on OVCAR-3 ovarian; > 100 µM with KM12 colon; > 100 µM with PC-3 prostate.
